In data set [1] the test system is chemokine gene-expression. On the set-up: species or system mice. The following applies: mouse, in vivo.
A further data set relates to CD 11b+ APC. The data set is classed as binding, C57 BL/6 mice.
For data set [2], the system named is SP2/0 cells expressing IgNP. On the set-up: species or system Balb/c mice. The following applies: mouse, in vivo.
The test system of data set [3] is Human THP-1 monocytic cells. The class given is binding.
In a further data set the test system is antibodies against hIgG. Details: species or system C57BL/6 mice. Particulars: mouse, in vivo, iv.
Data set [4] concerns T cell immunity to MHC class I-restricted peptides R10K and SIINFEKL
On the set-up: species or system BALB/c mice; C57BL/6 mice. Particulars: mouse, in vivo.

For data set [5] the following is noted: mouse, in vivo, iv.

No end group written: not given here.

With Polyadenylic-Polyuridylic Acid [pA:pU], in data set [1], the “chemokine expression in pulmonary tissue” value is recorded as “trigger expression of a wide range of chemokines”. For the same substance, the “receptor binding on APC (competition with tagged pA:pU)” value in the data set with CD 11b+ APC is “bind to different cellular receptors”. Also, the “outcome of tumor-bearing mice” value in data set [2] was “succumbed to disease”. Moreover, the “competition of binding of tagged pA:pU to THP-1 cells” value in data set [3] was “able to compete out the binding of tagged pA:pU”. The “prevention of high zone tolerance (anti-hIgG endpoint titers)” value in the data set on antibodies against hIgG was “largely prevent high zone tolerance”. Also, the “T cell immunity to MHC class I-restricted peptides (IFN-γ, IL-4 SFC/spleen)” value in data set [4] is “able to promote increased T cell immunity to different MHC class I-restricted peptides”.

As for SFERFEIFPKE [HA peptide], the “detection of epitope in the blood as function of time post-injection” value in data set [5] is listed as “not detected in the periphery”.

For the origin of these results see patent US8809290B2 (priority 2002, dated 2014).
